# Test results from the supplement of paper PMC9663587.
# Assays:
# [1] = compound: CCCCOc1c(C(=O)c2c(F)cc(C)cc2F)c[nH]c2nncc1-2
# Saracatinib/AZD0530 = compound: CN1CCN(CCOc2cc(OC3CCOCC3)c3c(Nc4c(Cl)ccc5c4OCO5)ncnc3c2)CC1 [Saracatinib/AZD0530]
# Rucaparib = compound: CNCc1ccc(-c2[nH]c3cc(F)cc4c3c2CCNC4=O)cc1 [Rucaparib]
# THZ531 [2] = compound: T1, CN(C)C/C=C/C(=O)Nc1ccc(C(=O)N2CCC[C@@H](Nc3ncc(Cl)c(-c4c[nH]c5ccccc45)n3)C2)cc1 [THZ531]
# BVD523 = compound: CC(C)Nc1cc(-c2c[nH]c(C(=O)N[C@H](CO)c3cccc(Cl)c3)c2)c(Cl)cn1 [BVD523]
# THZ1 [3] = compound: T2, CN(C)C/C=C/C(=O)Nc1ccc(C(=O)Nc2cccc(Nc3ncc(Cl)c(-c4c[nH]c5ccccc45)n3)c2)cc1 [THZ1]
# [4] = compound: COc1ccc2c(c1)[C@]1(C[C@H]1c1ccc3c(/C=C/c4ccc(CN5C[C@@H](C)O[C@@H](C)C5)cc4)n[nH]c3c1)C(=O)N2
# Alpelisib/BYL719 = compound: Cc1nc(NC(=O)N2CCC[C@H]2C(N)=O)sc1-c1ccnc(C(C)(C)C(F)(F)F)c1 [Alpelisib/BYL719]
# [5] = compound: CO[C@@H](C)Cn1c(=O)n(C)c2cnc3ccc(-c4cncc(C(C)(C)O)c4)cc3c21
# Cediranib/AZD2171 = compound: COc1cc2c(Oc3ccc4[nH]c(C)cc4c3F)ncnc2cc1OCCCN1CCCC1 [Cediranib/AZD2171]
# [6] = compound: CC(=O)Nc1cccc(-n2c(=O)n(C3CC3)c(=O)c3c(Nc4ccc(I)cc4F)n(C)c(=O)c(C)c32)c1
# AZD1775 = compound: C=CCn1c(=O)c2cnc(Nc3ccc(N4CCN(C)CC4)cc3)nc2n1-c1cccc(C(C)(C)O)n1 [AZD1775]
# YKL-5-124 = compound: C=CC(=O)Nc1ccc(C(=O)Nc2[nH]nc3c2CN(C(=O)N[C@H](CN(C)C)c2ccccc2)C3(C)C)cc1 [YKL-5-124]; test: increase in dead-cell fraction, 72 h; higher = more death;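 note: breast cancer cell lines in 384-well plates, stained with Hoechst plus LIVE/DEAD far red dye and imaged, cells above an LDR intensity threshold counted dead, Hoechst-negative corpses included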
# [7] = compound: CC(=O)c1c(C)c2cnc(Nc3ccc(N4CCNCC4)cn3)nc2n(C2CCCC2)c1=O; test: as above
# THZ531 [8] = compound: T1, THZ531; test: as above
# THZ1 [9] = compound: T2, THZ1; test: as above
# [10] = compound: CCc1cnn2c(NCc3ccc[n+]([O-])c3)cc(N3CCCC[C@H]3CCO)nc12; test: as above
# LEE011/Ribociclib = compound: CN(C)C(=O)c1cc2cnc(Nc3ccc(N4CCNCC4)cn3)nc2n1C1CCCC1 [LEE011/Ribociclib]; test: as above
# Neratinib/HKI272 = compound: CCOc1cc2ncc(C#N)c(Nc3ccc(OCc4ccccn4)c(Cl)c3)c2cc1NC(=O)/C=C/CN(C)C [Neratinib/HKI272]; test: as above
# BSJ-03-123 = compound: CC(=O)c1c(C)c2cnc(Nc3ccc(N4CCN(CCOCCOCCOCCNC(=O)COc5cccc6c5C(=O)N(C5CCC(=O)NC5=O)C6=O)CC4)cn3)nc2n(C2CCCC2)c1=O [BSJ-03-123]; test: as above
# 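Throughout, for GR50, 72 h: breast cancer and non-malignant breast epithelial cell lines, Deep Dye Drop or Dye Drop imaging, nine half-log doses, GR normalized to time-zero plates and DMSO-only controls.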
cell line,measurement,setting,value
AU565,"GR50, 72 h",[1],0.142 µM
same,"GR50, 72 h",Saracatinib/AZD0530,4.82 µM
same,"GR50, 72 h",Rucaparib,> 10 µM
same,"GR50, 72 h",THZ531 [2],0.055 µM
same,"GR50, 72 h",BVD523,> 10 µM
same,"GR50, 72 h",THZ1 [3],0.0187 µM
same,"GR50, 72 h",[4],0.00339 µM
same,"GR50, 72 h",Alpelisib/BYL719,0.27 µM
same,"GR50, 72 h",[5],0.00478 µM
same,"GR50, 72 h",Cediranib/AZD2171,> 10 µM
same,"GR50, 72 h",[6],> 1 µM
same,"GR50, 72 h",AZD1775,0.216 µM
same,increase in dead-cell fraction,YKL-5-124; 0.001 µM,0.0305
same,increase in dead-cell fraction,YKL-5-124; 0.003162 µM,0.0489
same,increase in dead-cell fraction,YKL-5-124; 0.01 µM,0.0994
same,increase in dead-cell fraction,YKL-5-124; 0.03162 µM,0.0877
same,increase in dead-cell fraction,YKL-5-124; 0.1 µM,0.0813
same,increase in dead-cell fraction,YKL-5-124; 0.3162 µM,0.114
same,increase in dead-cell fraction,YKL-5-124; 1 µM,0.113
same,increase in dead-cell fraction,YKL-5-124; 3.162 µM,0.215
same,increase in dead-cell fraction,YKL-5-124; 10 µM,0.524
same,increase in dead-cell fraction,[7]; 0.0003162 µM,-0.0036
same,increase in dead-cell fraction,[7]; 0.001 µM,-0.0011
same,increase in dead-cell fraction,[7]; 0.003162 µM,0.0019
same,increase in dead-cell fraction,[7]; 0.01 µM,-0.0007
same,increase in dead-cell fraction,[7]; 0.03162 µM,0.008
same,increase in dead-cell fraction,[7]; 0.1 µM,0.0139
same,increase in dead-cell fraction,[7]; 0.3162 µM,0.0209
same,increase in dead-cell fraction,[7]; 1 µM,0.0255
same,increase in dead-cell fraction,[7]; 3.162 µM,0.0446
same,increase in dead-cell fraction,THZ531 [8]; 0.0001 µM,0.0002
same,increase in dead-cell fraction,THZ531 [8]; 0.0003162 µM,0.0023
same,increase in dead-cell fraction,THZ531 [8]; 0.001 µM,-0.0009
same,increase in dead-cell fraction,THZ531 [8]; 0.003162 µM,0.0019
same,increase in dead-cell fraction,THZ531 [8]; 0.01 µM,-0.005
same,increase in dead-cell fraction,THZ531 [8]; 0.03162 µM,0.0372
same,increase in dead-cell fraction,THZ531 [8]; 0.1 µM,0.133
same,increase in dead-cell fraction,THZ531 [8]; 0.3162 µM,0.297
same,increase in dead-cell fraction,THZ531 [8]; 1 µM,0.488
same,increase in dead-cell fraction,THZ1 [9]; 0.0001 µM,-0.0048
same,increase in dead-cell fraction,THZ1 [9]; 0.0003162 µM,-0.0064
same,increase in dead-cell fraction,THZ1 [9]; 0.001 µM,-0.0098
same,increase in dead-cell fraction,THZ1 [9]; 0.003162 µM,-0.0018
same,increase in dead-cell fraction,THZ1 [9]; 0.01 µM,0.0038
same,increase in dead-cell fraction,THZ1 [9]; 0.03162 µM,0.0873
same,increase in dead-cell fraction,THZ1 [9]; 0.1 µM,0.262
same,increase in dead-cell fraction,THZ1 [9]; 0.3162 µM,0.48
same,increase in dead-cell fraction,THZ1 [9]; 1 µM,0.579
same,increase in dead-cell fraction,[10]; 0.0001 µM,0.0029
same,increase in dead-cell fraction,[10]; 0.0003162 µM,0.0001
same,increase in dead-cell fraction,[10]; 0.001 µM,0.0027
same,increase in dead-cell fraction,[10]; 0.003162 µM,0.0033
same,increase in dead-cell fraction,[10]; 0.01 µM,0.0437
same,increase in dead-cell fraction,[10]; 0.03162 µM,0.247
same,increase in dead-cell fraction,[10]; 0.1 µM,0.346
same,increase in dead-cell fraction,[10]; 0.3162 µM,0.315
same,increase in dead-cell fraction,[10]; 1 µM,0.345
same,increase in dead-cell fraction,LEE011/Ribociclib; 0.001 µM,-0.0067
same,increase in dead-cell fraction,LEE011/Ribociclib; 0.003162 µM,-0.0027
same,increase in dead-cell fraction,LEE011/Ribociclib; 0.01 µM,0.0258
same,increase in dead-cell fraction,LEE011/Ribociclib; 0.03162 µM,0.0105
same,increase in dead-cell fraction,LEE011/Ribociclib; 0.1 µM,0.0143
same,increase in dead-cell fraction,LEE011/Ribociclib; 0.3162 µM,0.0331
same,increase in dead-cell fraction,LEE011/Ribociclib; 1 µM,0.0469
same,increase in dead-cell fraction,LEE011/Ribociclib; 3.162 µM,0.0463
same,increase in dead-cell fraction,LEE011/Ribociclib; 10 µM,0.0439
same,increase in dead-cell fraction,Neratinib/HKI272; 0.0003162 µM,0.0048
same,increase in dead-cell fraction,Neratinib/HKI272; 0.001 µM,0.0173
same,increase in dead-cell fraction,Neratinib/HKI272; 0.003162 µM,0.0398
same,increase in dead-cell fraction,Neratinib/HKI272; 0.01 µM,0.0858
same,increase in dead-cell fraction,Neratinib/HKI272; 0.03162 µM,0.16
same,increase in dead-cell fraction,Neratinib/HKI272; 0.1 µM,0.195
same,increase in dead-cell fraction,Neratinib/HKI272; 0.3162 µM,0.232
same,increase in dead-cell fraction,Neratinib/HKI272; 1 µM,0.206
same,increase in dead-cell fraction,Neratinib/HKI272; 3.162 µM,0.321
same,increase in dead-cell fraction,BSJ-03-123; 0.001 µM,0.0012
same,increase in dead-cell fraction,BSJ-03-123; 0.003162 µM,-0.0066
same,increase in dead-cell fraction,BSJ-03-123; 0.01 µM,0.0069
same,increase in dead-cell fraction,BSJ-03-123; 0.03162 µM,-0.0059
same,increase in dead-cell fraction,BSJ-03-123; 0.1 µM,0.0078
same,increase in dead-cell fraction,BSJ-03-123; 0.3162 µM,0.0057
same,increase in dead-cell fraction,BSJ-03-123; 1 µM,0.0399
same,increase in dead-cell fraction,BSJ-03-123; 3.162 µM,0.0336
same,increase in dead-cell fraction,BSJ-03-123; 10 µM,0.306
